Active and inactive are the calls of the source. The rule behind the calls is not given here.
Assays:
[1] = target: Gamma-secretase; experiment: Modulation of gamma-secretase-mediated cleavage of human APP Swedish and London mutation expressed in HEK293 cells assessed as inhibition of amyloid beta42 production after 5 hrs by sandwich immunoassay; type: cell-based
[2] = target: T1, Gamma-secretase (Homo sapiens) (UniProt Q96BI3+Q9NZ42+Q8WW43+P49768+Q92542+P49810); experiment: Modulation of gamma-secretase-mediated cleavage of human APP Swedish and London mutation expressed in HEK293 cells assessed as reduction of total amyloid beta/amyloid beta42 ratio after 5 hrs by sandwich immunoassay; type: cell-based
[3] = target: Gamma-secretase; experiment: Modulation of gamma-secretase-mediated cleavage of human APP Swedish and London mutation expressed in HEK293 cells assessed as reduction of total amyloid beta level after 5 hrs by sandwich immunoassay; type: cell-based
[4] = target: Gamma-secretase; experiment: Modulation of gamma-secretase-mediated cleavage of human APP Swedish and London mutation expressed in HEK293 cells assessed as inhibition of amyloid beta40 production after 5 hrs by sandwich immunoassay; type: cell-based
[5] = Chemical stability of the compound under neutral conditions; type: physicochemical
[6] = Chemical stability of the compound in aqueous 0.1 N HCl assessed as decomposition to corresponding acetophenone after 3 hrs; type: physicochemical; settings: buffer
[7] = Dissociation constant, pKa of the compound; type: physicochemical
[8] = Aqueous solubility of the compound at pH 3.5; type: physicochemical; settings: aqueous medium
[9] = Lipophilicity, log D of the compound at pH 7.4; type: physicochemical; settings: buffer
[10] = target: Voltage-gated inwardly rectifying potassium channel KCNH2 (Homo sapiens, UniProt Q12809); experiment: Inhibition of human ERG by cell based voltage clamp assay
[11] = species: Canis familiaris; experiment: Cardiotoxicity in dog assessed as effect on electrocardiographic QTc interval at compound concentration required for pharmacological effect; type: toxicity, organism-based, Canis lupus familiaris; settings: in vivo
[12] = tested on: Rattus norvegicus; experiment: Antialzheimer activity in rat assessed as reduction in amyloid beta42 level in CSF at 30 mg/kg, po; type: functional; set-up: scale not given: the % may be the effect or the level left
[13] = tested on: Rattus norvegicus; experiment: Antialzheimer activity in rat assessed as reduction in amyloid beta42 level in cortex at 30 mg/kg, po; type: functional; set-up: scale not given: the % may be the effect or the level left
[14] = Permeability from apical to basolateral side of human Caco2 cells; type: ADME, cell-based; settings: Caco-2, read-out: permeability
[15] = target: T1, Gamma-secretase (Homo sapiens); experiment: Modulation of gamma-secretase-mediated cleavage of human APP Swedish and London mutation expressed in HEK293 cells assessed as increase in amyloid beta38 production at 10 uM by SELDI-MS analysis; type: cell-based
[16] = tested on: Rattus norvegicus; experiment: Antialzheimer activity in CD rat assessed as reduction in amyloid beta42 level in cortex administered as po for 6 days by alphaLISA analysis relative to total amyloid beta level; type: functional, organism-based
[17] = tested on: Rattus norvegicus; experiment: Antialzheimer activity in CD rat assessed as reduction in amyloid beta42 level in cortex administered as po for 6 days by alphaLISA analysis relative to total amyloid beta40 level; type: functional, organism-based
[18] = tested on: Rattus norvegicus; experiment: Antialzheimer activity in po dosed CD rat assessed as reduction in amyloid beta42 level in cortex after 3 hrs by alphaLISA analysis relative to total amyloid beta level; type: functional, organism-based
[19] = tested on: Rattus norvegicus; experiment: Antialzheimer activity in po dosed CD rat assessed as reduction in amyloid beta42 level in CSF after 3 hrs by alphaLISA analysis relative to total amyloid beta level; type: functional, organism-based
[20] = tested on: Rattus norvegicus; experiment: Antialzheimer activity in CD rat assessed as reduction in amyloid beta42 level in CSF administered as po for 6 days by alphaLISA analysis relative to total amyloid beta level; type: functional, organism-based
[21] = tested on: Rattus norvegicus; experiment: Antialzheimer activity in po dosed CD rat assessed as reduction in amyloid beta42 level in CSF after 3 hrs by alphaLISA analysis relative to amyloid beta40 level; type: functional, organism-based
[22] = tested on: Rattus norvegicus; experiment: Antialzheimer activity in CD rat assessed as reduction in amyloid beta42 level in plasma administered as po for 6 days by alphaLISA analysis relative to total amyloid beta40 level; type: functional, organism-based
[23] = tested on: Rattus norvegicus; experiment: Antialzheimer activity in CD rat assessed as reduction in amyloid beta42 level in CSF administered as po for 6 days by alphaLISA analysis relative to total amyloid beta40 level; type: functional, organism-based
[24] = target: T1, Gamma-secretase (Homo sapiens); experiment: Modulation of gamma-secretase-mediated cleavage of human APP Swedish and London mutation expressed in HEK293 cells assessed as increase in amyloid beta37 production at 10 uM by SELDI-MS analysis; type: cell-based
[25] = tested on: Rattus norvegicus; experiment: Antialzheimer activity in po dosed CD rat assessed as reduction in amyloid beta42 level in plasma after 3 hrs by alphaLISA analysis relative to total amyloid beta level; type: functional, organism-based
[26] = tested on: Rattus norvegicus; experiment: Antialzheimer activity in po dosed CD rat assessed as reduction in amyloid beta42 level in cortex after 3 hrs by alphaLISA analysis relative to amyloid beta40 level; type: functional, organism-based
[27] = tested on: Rattus norvegicus; experiment: Antialzheimer activity in po dosed CD rat assessed as reduction in amyloid beta42 level in plasma after 3 hrs by alphaLISA analysis relative to amyloid beta40 level; type: functional, organism-based
[28] = target: T1, Gamma-secretase (Homo sapiens); experiment: Modulation of gamma-secretase-mediated cleavage of human APP Swedish and London mutation expressed in HEK293 cells assessed as inhibition of amyloid beta39 production at 10 uM by SELDI-MS analysis; type: cell-based
[29] = tested on: Rattus norvegicus; experiment: Antialzheimer activity in CD rat assessed as reduction in amyloid beta42 level in plasma administered as po for 6 days by alphaLISA analysis relative to total amyloid beta level; type: functional, organism-based
[30] = target: T1, Gamma-secretase (Homo sapiens); experiment: Modulation of gamma-secretase-mediated cleavage of human APP Swedish and London mutation expressed in HEK293 cells assessed as inhibition of amyloid beta42 production at 10 uM by SELDI-MS analysis; type: cell-based
[31] = target: T1, Gamma-secretase (Homo sapiens); experiment: Modulation of gamma-secretase-mediated cleavage of human APP Swedish and London mutation expressed in HEK293 cells assessed as inhibition of amyloid beta40 production at 10 uM by SELDI-MS analysis; type: cell-based
[32] = Chemical stability of the compound in aqueous 0.1 N HCl/MeOH (1:1) assessed as deterioration of enantiomaric excess after 7 days; type: physicochemical; settings: buffer, 168 h

Chain of Voltage-gated inwardly rectifying potassium channel KCNH2 (Q12809 whole entry): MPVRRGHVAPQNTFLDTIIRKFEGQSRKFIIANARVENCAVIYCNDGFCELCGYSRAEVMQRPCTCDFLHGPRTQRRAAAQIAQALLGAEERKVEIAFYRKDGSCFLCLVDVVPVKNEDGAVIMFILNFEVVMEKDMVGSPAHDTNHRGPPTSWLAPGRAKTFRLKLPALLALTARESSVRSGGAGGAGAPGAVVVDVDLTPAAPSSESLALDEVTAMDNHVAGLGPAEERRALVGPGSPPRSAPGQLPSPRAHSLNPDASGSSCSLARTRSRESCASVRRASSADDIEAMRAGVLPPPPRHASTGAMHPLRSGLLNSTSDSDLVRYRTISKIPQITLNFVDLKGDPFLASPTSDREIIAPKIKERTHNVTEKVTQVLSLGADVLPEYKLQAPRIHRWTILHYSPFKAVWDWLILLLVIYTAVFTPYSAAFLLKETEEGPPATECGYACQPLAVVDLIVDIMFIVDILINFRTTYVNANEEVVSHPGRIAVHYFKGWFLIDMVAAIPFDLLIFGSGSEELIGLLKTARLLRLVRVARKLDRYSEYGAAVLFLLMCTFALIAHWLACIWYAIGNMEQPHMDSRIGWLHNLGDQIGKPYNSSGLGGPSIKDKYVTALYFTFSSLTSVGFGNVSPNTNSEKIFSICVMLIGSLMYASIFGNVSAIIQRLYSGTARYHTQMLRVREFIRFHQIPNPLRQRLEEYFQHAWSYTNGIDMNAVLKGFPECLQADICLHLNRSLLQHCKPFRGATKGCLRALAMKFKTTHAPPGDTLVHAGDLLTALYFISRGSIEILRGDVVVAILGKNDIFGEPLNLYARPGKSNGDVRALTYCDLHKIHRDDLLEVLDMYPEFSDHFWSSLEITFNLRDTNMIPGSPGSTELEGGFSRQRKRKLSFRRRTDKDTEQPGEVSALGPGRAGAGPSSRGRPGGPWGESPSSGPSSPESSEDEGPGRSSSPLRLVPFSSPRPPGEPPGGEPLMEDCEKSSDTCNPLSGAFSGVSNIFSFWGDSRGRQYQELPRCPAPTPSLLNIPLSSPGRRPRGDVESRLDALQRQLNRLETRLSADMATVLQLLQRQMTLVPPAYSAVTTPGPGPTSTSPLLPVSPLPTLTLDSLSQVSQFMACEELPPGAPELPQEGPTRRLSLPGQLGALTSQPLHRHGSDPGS

Row | SMILES | IC50 [1] | Ratio IC50 [2] | IC50 [3] | other results
1 | COc1cc(/C=C2\CCCN3C2=NOC3(CO)c2ccc(F)cn2)ccc1-n1cnc(C)c1 (single isomer, unassigned) | 103 nM | 192 | 19700 nM | –
2 | COc1cc(/C=C2\CCCN3C2=NO[C@]3(CN(C)C)c2ccc(F)cc2)ccc1-n1cnc(C)c1 | 196 nM | 96 | 18800 nM | –
3 | COCCCN1C(/C=C/c2ccc(-n3cnc(C)c3)c(OC)c2)=NOC1(C)c1ccc(F)cc1 (racemic) | 187 nM | – | – | IC50 [4]: 2000 nM; Stability [5]: Stable; Stability [6]: Unstable
4 | COc1cc(/C=C2\CCCN3C2=NOC3(CO)c2ccc(C#N)cc2)ccc1-n1cnc(C)c1 (single isomer, unassigned) | 117 nM | > 171 | > 20000 nM | –
5 | COC[C@]1(c2ccc(F)cc2)ON=C2/C(=C/c3ccc(-n4cnc(C)c4)c(OC)c3)CCCN21 | 122 nM | 144 | 17500 nM | –
6 | COc1cc(/C=C2\CCCN3C2=NO[C@]3(CN(C)C(C)=O)c2ccc(F)cc2)ccc1-n1cnc(C)c1 | 199 nM | > 101 | > 20000 nM | –
7 | COc1cc(/C=C2\CCCN3C2=NOC3(CO)c2ccccc2)ccc1-n1cnc(C)c1 (single isomer, unassigned) | 96 nM | 33 | 3210 nM | –
8 | c1ccc(-n2ccnc2)cc1 | – | – | – | pKa [7]: 5.1
9 | COc1cc(/C=C2\CCCN3C2=NOC3(CO)c2cncc(F)c2)ccc1-n1cnc(C)c1 (single isomer, unassigned) | 106 nM | > 189 | > 20000 nM | –
10 | COc1cc(/C=C2\CCCN3C2=NOC[C@@H]3c2cc(F)c(F)c(F)c2)ccc1-n1cnc(C)c1.Cl | – | – | – | solubility [8]: > 100 mM; logD [9]: 5.29
11 | COc1cc(/C=C2\CCCN([C@@H](C)c3ccc(F)cc3)C2=O)ccc1-n1cnc(C)c1 | – | – | – | IC50 [10]: 1200 nM; Activity [11]: Non-toxic; Activity [12]: 55%; Activity [13]: 44%; Papp A→B [14]: 57.9 ×10⁻⁶ cm/s
12 | CNC[C@]1(c2ccc(F)cc2)ON=C2/C(=C/c3ccc(-n4cnc(C)c4)c(OC)c3)CCCN21 | 191 nM | > 105 | > 20000 nM | –
13 | COc1cc(/C=C2\CCCN3C2=NOC[C@@H]3c2cc(F)c(F)c(F)c2)ccc1-n1cnc(C)c1 | – | – | – | Activity [15]: Active; Activity [16]: Dose-dependent effect; Activity [17]: Dose-dependent effect; Activity [18]: Dose-dependent effect; Activity [19]: Dose-dependent effect; Activity [20]: Dose-dependent effect; Activity [21]: Dose-dependent effect; Activity [22]: Dose-dependent effect; Activity [23]: Dose-dependent effect; Activity [24]: Active; Activity [25]: Dose-dependent effect; Activity [26]: Dose-dependent effect; Activity [27]: Dose-dependent effect; Activity [28]: Active; Activity [29]: Dose-dependent effect; Activity [30]: Active; Activity [31]: Active
14 | COc1cc(/C=C2\CCCN3C2=NO[C@@]3(CO)c2ccc(F)cc2)ccc1-n1cnc(C)c1 | 7640 nM | – | > 20000 nM | Stability [32]: Stable; pKa [7]: 5.8

Second part, led by results:

Row | IC50 [1] | Ratio IC50 [2] | IC50 [3] | SMILES | other results
15 | 56 nM | – | – | COc1cc(/C=C2\CCCN(C3(c4ccccc4)CCOCC3)C2=O)ccc1-n1cnc(C)c1 | –
16 | 21 nM | 316 | 6750 nM | COc1cc(/C=C2\CCCN3C2=NOC3(CO)c2cc(F)cc(F)c2)ccc1-n1cnc(C)c1 (single isomer, unassigned) | –
17 | 80 nM | > 250 | > 20000 nM | COc1cc(/C=C2\CCCN3C2=NO[C@]3(CNCCO)c2ccc(F)cc2)ccc1-n1cnc(C)c1 | –
18 | 72 nM | 269 | 19300 nM | COc1cc(/C=C2\CCCN3C2=NO[C@]3(CN(C)S(C)(=O)=O)c2ccc(F)cc2)ccc1-n1cnc(C)c1 | –
19 | 89 nM | > 225 | > 20000 nM | COc1cc(/C=C2\CCCN3C2=NO[C@@]3(c2ccc(F)cc2)[C@H](C)O)ccc1-n1cnc(C)c1 | –
20 | 46 nM | 350 | 16200 nM | COc1cc(/C=C2\CCCN3C2=NO[C@@]3(c2ccc(F)cc2)[C@@H](C)O)ccc1-n1cnc(C)c1 | –
21 | 53 nM | 189 | 10100 nM | COc1cc(/C=C2\CCCN3C2=NOC3(CO)c2ccccc2F)ccc1-n1cnc(C)c1 (single isomer, unassigned) | –
22 | 15 nM | 1020 | 15800 nM | COc1cc(/C=C2\CCCN3C2=NOC3(CO)c2cc(F)c(F)c(F)c2)ccc1-n1cnc(C)c1 (single isomer, unassigned) | –
23 | 60 nM | – | – | COCCCN(C(=O)/C=C/c1ccc(-n2cnc(C)c2)c(OC)c1)c1cccc2ccccc12 | –
24 | 26 nM | 280 | 7160 nM | COc1cc(/C=C2\CCCN3C2=NOC3(CO)c2cccc(F)c2)ccc1-n1cnc(C)c1 (single isomer, unassigned) | –
